Measurements: patent US7557091B2, “HKI10311129, novel antibiotic, method for producing the same and the use thereof” (Leibniz-Institut fuer Naturstoff-Forschung und …, priority 2004, dated 2009)
Converted amounts (≈) assume the structure as drawn.

Assays:
Test in all cases: MIC determination by NCCLS dilution antimicrobial susceptibility test
Assay type in all cases: cell-based
[1] = system: bacillus subtilis ATCC 6633; conditions: ATCC6633
Text: (§1) The antibacterial effects of HKI10311129 can be determined by applying methods well-known to the experts, such as the agar plate diffusion test and the determination of the minimal inhibitory concentration (MIC).
(§2) The antimicrobial characteristics have been tested according to the US laboratory standards—National Committee for Clinical Laboratory Standards, Methods for dilution anti-microbial susceptibility tests for bacteria that grow aerobically, Approved Standard M7-A. NCCLS, Villanova, Pa., 1991).

[2] = system: enterococcus faecalis 1528 (VRE); conditions: vanA-type vancomycin resistance
Text: as §1, §2

[3] = system: staphylococcus aureus 134/93 (MRSA); conditions: multiresistant
Text: as §1, §2

[4] = system: staphylococcus aureus SG 511; conditions: SG511
Text: as §1, §2

MIC [1]: < 0.05 µg/mL
MIC [2]: 0.4 µg/mL (≈ 0.359 µM)
MIC [3]: 0.8 µg/mL (≈ 0.718 µM)
MIC [4]: 0.8 µg/mL (≈ 0.718 µM)
Compound: COC1=CC(=O)c2c(cc3c(c2O)C(=O)C2(OC4CCC(OC5CCC(O)C(C)O5)C(C)O4)C(=O)C(C(N)=O)=C(O)C(OC4CCC(OC5CCC(OC6CCC(OC7CCC(O)C(C)O7)C(C)O6)C(C)O5)C(C)O4)C2C3)C1=O (stereo not shown) [HKI10311129]
